Measurements published in ChEMBL document CHEMBL5634083, “Targeting polyketide synthase 13 for the treatment of tuberculosis” (Eur J Med Chem, 2023).
In brackets after ≈: the same amount, converted by molar mass.

Experiments:
[1] = system: Mycobacterium tuberculosis; experiment: Antimycobacterial activity against Mycobacterium tuberculosis H37Rv assessed as reduction in microbial growth after 7 days by alamar blue assay; assay type: functional; conditions: 168 h, time 7 day
[2] = system: Mycobacterium tuberculosis; experiment: Antimycobacterial activity against Mycobacterium tuberculosis H37Rv assessed as reduction in bacterial cell growth by resazurin reduction method; assay type: functional
[3] = system: Mycobacterium tuberculosis; experiment: Antimycobacterial activity against Mycobacterium tuberculosis H37Rv assessed as reduction in bacterial growth; assay type: functional
[4] = system: Mycobacterium tuberculosis; experiment: Antimycobacterial activity against Mycobacterium tuberculosis H37Rv assessed as reduction in bacterial growth incubated for 7 days by resazurin based assay; assay type: functional; conditions: 168 h, time 7 day
[5] = system: Mycobacterium tuberculosis; experiment: Antimycobacterial activity against Mycobacterium tuberculosis H37Rv assessed as microbial growth inhibition measured after 3 days by alamar blue assay; assay type: functional; conditions: 72 h, time 3 day
[6] = Microsomal stability in human liver microsomes assessed as half life; assay type: ADME, Microsome
[7] = system: Mycobacterium tuberculosis; experiment: Antimycobacterial activity against Mycobacterium tuberculosis H37Rv assessed as reduction in bacterial growth measured after 16 to 24 hrs by microplate alamar blue assay; assay type: functional; conditions: time 16-24 hrs
[8] = biological target: Polyketide synthase Pks13 (Mycobacterium tuberculosis (strain ATCC 25618 / H37Rv), UniProt I6X8D2); experiment: Inhibition of Mycobacterium tuberculosis recombinant Pks13 expressed in Escherichia coli BL21 (DE3) cells using 4-methylumbelliferyl heptanoate as substrate incubated for 3 hrs by […] based analysis
Polyketide synthase Pks13, sequence (I6X8D2 whole entry): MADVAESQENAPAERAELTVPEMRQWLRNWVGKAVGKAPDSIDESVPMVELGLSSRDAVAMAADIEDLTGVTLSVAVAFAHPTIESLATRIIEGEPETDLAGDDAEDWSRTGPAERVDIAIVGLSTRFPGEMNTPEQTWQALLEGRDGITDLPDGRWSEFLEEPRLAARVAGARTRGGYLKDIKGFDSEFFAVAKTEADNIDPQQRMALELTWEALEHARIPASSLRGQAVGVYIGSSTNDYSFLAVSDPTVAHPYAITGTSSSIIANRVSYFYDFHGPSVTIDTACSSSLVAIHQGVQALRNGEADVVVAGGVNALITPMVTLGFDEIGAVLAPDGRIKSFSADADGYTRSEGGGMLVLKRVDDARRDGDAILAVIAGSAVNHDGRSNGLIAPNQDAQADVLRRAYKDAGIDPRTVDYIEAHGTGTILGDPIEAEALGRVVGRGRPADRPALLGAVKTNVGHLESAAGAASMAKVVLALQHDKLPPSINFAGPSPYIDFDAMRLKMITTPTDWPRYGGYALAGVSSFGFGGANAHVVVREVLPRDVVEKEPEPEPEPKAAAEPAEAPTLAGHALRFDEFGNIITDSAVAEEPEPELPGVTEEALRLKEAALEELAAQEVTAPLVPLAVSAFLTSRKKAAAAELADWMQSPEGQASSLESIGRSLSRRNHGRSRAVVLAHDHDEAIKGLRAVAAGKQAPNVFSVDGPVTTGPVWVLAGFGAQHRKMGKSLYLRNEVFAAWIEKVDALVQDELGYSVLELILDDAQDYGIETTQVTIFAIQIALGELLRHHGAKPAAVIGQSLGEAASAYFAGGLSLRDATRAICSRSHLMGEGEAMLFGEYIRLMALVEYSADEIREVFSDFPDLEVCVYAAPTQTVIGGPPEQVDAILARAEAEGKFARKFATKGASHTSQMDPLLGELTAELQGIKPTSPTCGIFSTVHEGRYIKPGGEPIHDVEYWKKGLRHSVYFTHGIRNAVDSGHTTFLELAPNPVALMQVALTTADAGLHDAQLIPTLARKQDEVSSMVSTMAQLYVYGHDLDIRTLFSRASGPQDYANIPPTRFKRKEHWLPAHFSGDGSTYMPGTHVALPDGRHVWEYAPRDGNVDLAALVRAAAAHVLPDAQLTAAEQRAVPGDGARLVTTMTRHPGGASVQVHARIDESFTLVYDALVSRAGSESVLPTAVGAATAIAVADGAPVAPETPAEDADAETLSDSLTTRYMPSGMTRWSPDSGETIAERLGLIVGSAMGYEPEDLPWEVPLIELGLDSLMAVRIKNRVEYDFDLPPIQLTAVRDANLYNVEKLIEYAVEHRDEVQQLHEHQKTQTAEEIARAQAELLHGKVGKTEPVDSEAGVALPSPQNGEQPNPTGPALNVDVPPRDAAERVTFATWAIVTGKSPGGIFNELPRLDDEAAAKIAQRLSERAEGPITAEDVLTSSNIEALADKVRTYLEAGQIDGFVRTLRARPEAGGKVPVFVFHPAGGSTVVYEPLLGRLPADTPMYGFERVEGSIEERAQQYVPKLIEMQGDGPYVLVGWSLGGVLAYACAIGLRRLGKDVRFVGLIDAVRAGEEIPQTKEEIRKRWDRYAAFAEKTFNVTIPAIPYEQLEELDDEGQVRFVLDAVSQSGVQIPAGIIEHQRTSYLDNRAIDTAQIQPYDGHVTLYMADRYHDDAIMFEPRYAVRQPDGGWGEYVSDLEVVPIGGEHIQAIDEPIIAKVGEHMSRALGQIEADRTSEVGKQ

[9] = system: Mycobacterium tuberculosis; experiment: Antimycobacterial activity against Mycobacterium tuberculosis H37Rv ATCC 27294 assessed as reduction in bacterial growth after 21 days by serial dilution method; assay type: functional; conditions: H37Rv ATCC 27294, 504 h, time 21 day
[10] = system: Mycobacterium tuberculosis; experiment: Antitubercular activity against Mycobacterium tuberculosis H37Rv assessed as reduction in microbial growth measured after 3 weeks by resazurin microplate reader assay; assay type: functional; conditions: 504 h
[11] = system: Mycobacterium tuberculosis; experiment: Antibacterial activity against Mycobacterium tuberculosis H37Rv assessed as inhibition of cell growth; assay type: functional
HepG2 = experiment: Cytotoxicity against human HepG2 cells assessed as reduction in cell growth; assay type: functional, cell-based
[12] = Cytotoxicity against African green monkey Vero cells assessed as reduction in cell viability; assay type: toxicity, cell-based; conditions: African green monkey (Chlorocebus sabaeus)
[13] = Metabolic stability in mouse liver microsomes assessed as intrinsic clearance; assay type: ADME, Microsome

**Q.** Which MIC [1] does the source give for `CCOC(=O)c1c(NC(=O)c2c(F)c(F)c(F)c(F)c2F)sc2c1CCN(CC)C2` here?
**A.** 0.23 µM

**Q.** Which MIC [2] does the source give for `CNC(=O)c1c(-c2ccccc2)oc2ccc(O)c(CN3CCCCC3)c12` here?
**A.** 0.29 µM (≈ 0.106 µg/mL)

**Q.** For `CCOC(=O)c1c(NC(=O)c2c(F)c(F)c(F)c(F)c2F)sc(C(N)=O)c1C`, which MIC [3] is on record?
**A.** 0.5 µM (≈ 0.211 µg/mL)

**Q.** What about the MIC [4] of the same compound?
**A.** 0.5 µM (≈ 0.211 µg/mL)

**Q.** With `C=CCCCCCCC[C@H]1C(=O)O[C@@H]1CCCCCNC(=O)c1ccc(N(C)C)cc1` as the compound, how does the MIC [5] read?
**A.** 1.6 µM (≈ 0.686 µg/mL)

**Q.** For `CCOC(=O)c1c(-c2ccccc2)oc2ccc(O)c(CN3CCC(C)CC3)c12`, which half-life [6] is on record?
**A.** 18.8 min

**Q.** For `O=c1cc(-c2ccccc2O)oc2ccc(O)c(CN3CCC3)c12`, which MIC [7] is on record?
**A.** 0.45 µg/mL (≈ 1.39 µM)

**Q.** And the IC50 [8]?
**A.** 0.0143 µM

**Q.** For `Cc1ccc(-c2cc(C(F)(F)F)nn2-c2ccc(S(N)(=O)=O)cc2)cc1` [CELECOXIB], which MIC [9] is on record?
**A.** 64 µg/mL (≈ 168 µM)

**Q.** Which MIC [9] does the source give for `CCN(CC)CCCC(C)Nc1c2ccc(Cl)cc2nc2ccc(OC)cc12` (stereo not drawn) [QUINACRINE] here?
**A.** 64 µg/mL (≈ 160 µM)

**Q.** Which MIC [10] does the source give for `O=C(c1ccccc1)c1cc(Cl)ccc1OCc1nc(-c2ccc(C(F)(F)F)cc2)no1` here?
**A.** 8 µg/mL

**Q.** Which MIC [9] does the source give for `COc1ccccc1OCCNCC(O)COc1cccc2[nH]c3ccccc3c12` (stereo not drawn) [CARVEDILOL] here?
**A.** 32 µg/mL (≈ 78.7 µM)

**Q.** With `CCCCCCCCCCC[C@@H](C[C@@H]1OC(=O)[C@H]1CCCCCC)OC(=O)[C@H](CC(C)C)NC=O` [ORLISTAT] as the compound, how does the MIC [11] read?
**A.** 15 µM (≈ 7.44 µg/mL)

**Q.** With `COC(=O)c1c(NC(=O)c2c(F)c(F)c(F)c(F)c2F)sc2c1CCCCC2` as the compound, how does the MIC [3] read?
**A.** 0.5 µM (≈ 0.21 µg/mL)

**Q.** What about the IC50 (HepG2) of the same compound?
**A.** 7.3 µM

**Q.** What about the IC50 [12] of the same compound?
**A.** 17.5 µM

**Q.** And the MIC [4]?
**A.** 1 µM (≈ 0.419 µg/mL)

**Q.** For `CNC(=O)c1c(-c2ccc(O)cc2)oc2ccc(O)c(CN3CCCCC3)c12`, which CLH [13] is on record?
**A.** < 0.5 mL/min/g
